Laboratory results reported in patent publication US9901611B2 (Molecular Defenses Corporation, priority 2015, dated 2018).
Read-outs that look alike come from different tables or passages of the source.

How the values were obtained:
HIV-1 LTR = details: Jurkat cells, synergistic induction by TNFα and Tat; cited from earlier work
[1] = Phase I/II clinical trial of oral GSH in HIV positive patients, PBMC intracellular GSH; format: in vivo, human
Excerpt: Early clinical trials determined the pharmacokinetics of absorption and intracellular distribution in Peripheral Blood Mononuclear Cells in asymptomatic HIV (+) patients, using three doses of 1 gm, 2 gms and 3 gms/day over a 4 week period, with two weeks of baselines, plus two weeks of post drug exposure.

[2] = in vivo, po; for share absorbed and intracellular: 1.5 hours
Excerpt: It would be possible to follow the two groups and to compare the rates of progression to determine statistically significant differences.

[3] = far advanced AIDS
Excerpt: A clinical study on far advanced AIDS patients who had exhausted the HAART combinations and averaged 300,000 copies (HIV RNA PCR) and 50 CD4+ cells/per cubic mm.

[4] = mouse, GSH pretreatment; cited from earlier work
HIV = details: U1 cells, in the absence of cytotoxic or cytostatic effects; cited from earlier work
microglial cells = details: microglia, NO and superoxide generated simultaneously; cited from earlier work
[5] = rat, i.v. bolus, cited from earlier work
[6] = human, in vivo, iv; cited from earlier work
[7] = system: mouse cytotoxic T-lymphocytes; details: i.p. injection on the third day post immunization; cited from earlier work
[8] = system: high-affinity component of mitochondrial GSH transport; details: stimulated by ATP; cited from earlier work
HIV-1 = details: in vitro, cited from earlier work
[9] = 5 g oral per day, two female patients who survived 1 year; cited from earlier work
[10] = cited from earlier work
[11] = infusion 10 mg/min for 120 min, cited from earlier work
[12] = 1,200 mg/day i.v., compared to baseline; cited from earlier work
[13] = rats, LPS; cited from earlier work
[14] = asymptomatic HIV (+) patients, 1, 2 and 3 gms/day
[15] = high end of dose range 50-300 mmol/kg
[16] = low end of dose range 50-300 mmol/kg

For `N/C(=N\O)c1cc(O)c(O)c(O)c1` [TD, Trimidox], the “HIV-1 LTR-mediated gene expression” value (HIV-1 LTR) is listed as “significantly suppressed”.

With `N[C@@H](CCC(=O)N[C@@H](CS)C(=O)NCC(=O)O)C(=O)O` [GSH, gamma-glutamyl-cysteinyl-glycine] the “relation of dose to PBMC GSH” value ([1]; 1 gm, 2 gms and 3 gms/day) was “dose response relationship”, the “completion of absorption and distribution within the PBMC” value [1, 14] was 60 min and the “start of absorption and distribution within the PBMC after ingestion” value [1, 14] was 30 min. The toxicities ([1]; asymptomatic HIV (+) patients, 4 week period) was “no evidence of toxicities”, the “share absorbed and intracellular” value ([2]; human) was 70-80% and the toxicities [2] was “no significant toxicities”. The “share absorbed and intracellular” value [2] was 80%, the “survival after starting on GSH” value ([3]; 75 mg/kg in two divided doses, four patients who followed the regimen) was 3 years and the “CD4+ cell counts” value ([3]; four patients) was “did not restore their CD4+ cell counts to any extent”. For the same compound, the morphine-induced lethality [4] was “protects against morphine-induced lethality”, the “induction of HIV expression mediated by PMA, TNF-α or IL-6” value (shortened to “induction of HIV expression mediated”) (HIV) was “suppressed in a dose-dependent fashion” and the peroxynitrite formation (microglial cells) was “significantly decreased”. The “apparent volume of distribution” value [5, 15] was 1.33 L/kg, the “half-life of the elimination phase” value [5, 15] was 11.4 min and the “rate constant for drug elimination and plasma clearance” value [5, 15] was 2.44 mL/min. For the same compound, the “apparent volume of distribution” value [5, 16] was 3.78 L/kg, the “half-life of the elimination phase” value [5, 16] was 52.4 min and the “rate constant for drug elimination and plasma clearance” value [5, 16] was 0.84 mL/min. For the same compound, the half-life [6] was 14.1 ± 9.2 min, the “augmentation of cytotoxic activity” value [7] was 5 fold and the Km [8] was roughly 60 µM. For the same compound, the V max [8] was “approximately 0.5 nM/min per mg of protein”, the “duration of suppression of HIV production” value (HIV-1; intracellular GSH in infected monocytes raised to the high end of the normal range) was “about 35 days” and the “HIV-1 p24 antigen levels and reverse transcriptase activity” value (HIV-1; single pulse exposure) was “sustained, concentration-dependent decrease”. For the same compound, the tumor growth [9] was “regression or stagnation of their tumor growth”, the “systolic and diastolic blood pressure” value ([10]; 1,844 mg i.v. bolus, hypertensive patients and non-hypertensive diabetics, within ten minutes) was “rapid and significant decrease” and the blood pressure values ([10]; 3,699 mg dose, normal subjects) was “significant decrease”. For the same compound, the “insulin clearance and action” value [11] was “No effect was seen”, the glucose-induced insulin secretion ([11]; patients with IGT) was “significantly potentiated” and the “hematologic parameters (hematocrit, hemoglobin, blood count)” value [12] was “significantly increase”.

In the case of `CC(=O)N[C@@H](CS)C(=O)O` [NAC, N-acetyl-L-cysteine], the “induction of HIV expression mediated” value (HIV) is given as “suppressed in a dose-dependent fashion”, the “HIV-1 LTR-mediated gene expression” value (HIV-1 LTR) is given as “significantly suppressed” and the “decrease of lung lavage neutrophil count” value [13] is given as “six fold”.

In the case of GSH ester [GSE], the “induction of HIV expression mediated” value (HIV) is listed as “suppressed in a dose-dependent fashion”.
